The text below walks through data of ChEMBL document CHEMBL3808273, “Steroids from the rhizome of Anemarrhena asphodeloides and their cytotoxic activities” (Bioorg Med Chem Lett, 2016).

As a reminder, the IC50 is the concentration at which inhibition is half-maximal.

Experiment [1] relates to HepG2. Nature of the experiment: Cytotoxicity against human HepG2 cells assessed as growth inhibition after 48 hrs by MTT assay. In kind it is functional, cell-based. To be noted: HepG2, 48 h. (Tetrazolium assays rely on reduction of a dye to a coloured formazan, in cell work by metabolically active cells.)
Experiment [2] deals with MCF7. As to the kind of experiment: Cytotoxicity against human MCF7 cells assessed as growth inhibition after 48 hrs by MTT assay. The experiment is classed as functional, cell-based. The settings on record: MCF7, 48 h.
For experiment [3], the system named is A549. Nature of the experiment: Cytotoxicity against human A549 cells assessed as growth inhibition after 48 hrs by MTT assay. In kind it is functional, cell-based. The settings on record: A549, 48 h.
The test system of experiment [4] is Bcap37. Nature of the experiment: Cytotoxicity against human Bcap37 cells assessed as growth inhibition after 48 hrs by MTT assay. The settings on record: Bcap37, 48 h. The experiment is classed as functional, cell-based.
Experiment [5] is described as follows: Cytotoxicity against human Hep3B cells assessed as growth inhibition after 48 hrs by MTT assay. In kind it is functional, cell-based, Hep 3B2.

SMILES strings stand for the structures.

As for `C[C@H]1CC[C@@]2(OC1)O[C@H]1C[C@H]3[C@@H]4CC[C@H]5C[C@@H](O[C@@H]6O[C@H](CO)[C@H](O)[C@H](O)[C@H]6O[C@@H]6O[C@H](CO)[C@@H](O)[C@H](O)[C@H]6O)CC[C@]5(C)[C@H]4CC[C@]3(C)[C@H]1[C@@H]2C`, the IC50 in experiment [1] was found to be 4.64 µM; in experiment [2], 20.5 µM; in experiment [3] it was 7.33 µM; in experiment [4], 5.37 µM; in experiment [5], 0.35 µM.

Consider `C[C@@H]1C(=O)O[C@H]2C[C@H]3[C@@H]4CC[C@H]5C[C@@H](O[C@@H]6O[C@H](CO)[C@H](O)[C@H](O)[C@H]6O[C@@H]6O[C@H](CO)[C@@H](O)[C@H](O)[C@H]6O)CC[C@]5(C)[C@H]4CC[C@]3(C)[C@H]21`, for which the IC50 in experiment [1], in experiment [2], in experiment [3], in experiment [4] and in experiment [5] was > 50 µM throughout.

On to `C[C@@H]1CC[C@@]2(OC1)O[C@H]1C[C@H]3[C@@H]4CC[C@H]5C[C@@H](O[C@H]6O[C@@H](CO)[C@@H](O)[C@@H](O)[C@@H]6O[C@H]6O[C@@H](CO)[C@H](O)[C@@H](O)[C@@H]6O)[C@@H](O)C[C@]5(C)[C@H]4CC[C@]3(C)[C@H]1[C@@H]2C`, for which the IC50 in experiment [1], in experiment [2], in experiment [3], in experiment [4] and in experiment [5] was > 50 µM each time.

Regarding `C[C@H]1CC[C@@]2(OC1)O[C@H]1C[C@H]3[C@@H]4CC[C@H]5C[C@@H](O)CC[C@]5(C)[C@H]4CC[C@]3(C)[C@H]1[C@@H]2C`, the IC50 in experiment [1], in experiment [2], in experiment [3], in experiment [4] and in experiment [5] was > 50 µM each time.

In the case of `C[C@@H]1CO[C@]2(O[C@@H]3C[C@@H]4[C@H]5CC[C@@H]6C[C@H](O[C@H]7O[C@@H](CO)[C@@H](O)[C@@H](O)[C@@H]7O[C@H]7O[C@@H](CO)[C@H](O)[C@@H](O)[C@@H]7O)CC[C@@]6(C)[C@@H]5CC[C@@]4(C)[C@@H]3[C@H]2C)[C@H](O)C1`, the IC50 in experiment [1], in experiment [2], in experiment [3], in experiment [4] and in experiment [5] was > 50 µM throughout.

For the molecule `CC(=O)C1=C[C@H](O)[C@H]2[C@@H]3CC[C@H]4C[C@@H](O[C@@H]5O[C@H](CO)[C@H](O)[C@H](O)[C@H]5O[C@@H]5O[C@H](CO)[C@@H](O)[C@H](O)[C@H]5O)CC[C@]4(C)[C@H]3CC[C@]12C`, the IC50 in experiment [1], in experiment [2], in experiment [3], in experiment [4] and in experiment [5] was > 50 µM throughout.

As to `C[C@H]1CC[C@@]2(OC1)O[C@H]1C[C@H]3[C@@H]4CC[C@H]5C[C@@H](OC6O[C@H](CO)[C@@H](O)[C@H](O)[C@@H]6O[C@@H]6O[C@H](CO)[C@@H](O)[C@H](O)[C@H]6O)CC[C@]5(C)[C@H]4CC[C@]3(C)[C@H]1[C@@H]2C` (some centres not stated), the IC50 in experiment [1] worked out at 6.42 µM; in experiment [2], 25.5 µM; in experiment [3] it was 8.42 µM; in experiment [4] it was 9.5 µM; in experiment [5], 13.8 µM.

In the case of `C[C@@H]1C(=O)O[C@H]2C[C@H]3[C@@H]4CC[C@H]5C[C@@H](O)[C@@H](O)C[C@]5(C)[C@H]4CC[C@]3(C)[C@H]21`, the IC50 in experiment [1], in experiment [2], in experiment [3], in experiment [4] and in experiment [5] was > 50 µM throughout.

For `C=C1CC[C@@]2(OC1)O[C@H]1C[C@H]3[C@@H]4CC[C@H]5C[C@@H](O[C@@H]6O[C@H](CO)[C@H](O)[C@H](O)[C@H]6O[C@@H]6O[C@H](CO)[C@@H](O)[C@H](O)[C@H]6O)CC[C@]5(C)[C@H]4CC[C@]3(C)[C@H]1[C@@H]2C`, the IC50 worked out at 6.47 µM in experiment [1]; 13.1 µM in experiment [2]; 5.62 µM in experiment [3]; 7.72 µM in experiment [4]; 9.98 µM in experiment [5].

On to `C[C@@H]1CC[C@]2(OC1)O[C@@H]1[C@@H](O)[C@@H]3[C@H]4CC[C@@H]5C[C@H](O[C@H]6O[C@@H](CO)[C@@H](O)[C@@H](O)[C@@H]6O[C@H]6O[C@@H](CO)[C@H](O)[C@@H](O)[C@@H]6O)CC[C@@]5(C)[C@@H]4CC[C@@]3(C)[C@@H]1[C@H]2C`, for which the IC50 in experiment [1], in experiment [2], in experiment [3], in experiment [4] and in experiment [5] was > 50 µM throughout.

With `O=c1[nH]cc(F)c(=O)[nH]1` [FLUOROURACIL], the values for the IC50 in experiment [4] and in experiment [5] were 5.18 µM and 23 µM, respectively.

On to `C[C@@H](CCC1(O)O[C@H]2C[C@H]3[C@@H]4CC[C@H]5C[C@@H](O)CC[C@]5(C)[C@H]4CC[C@]3(C)[C@H]2[C@@H]1C)CO[C@@H]1O[C@H](CO)[C@@H](O)[C@H](O)[C@H]1O` (some centres not stated), for which the IC50 in experiment [1], in experiment [2], in experiment [3], in experiment [4] and in experiment [5] was > 50 µM each time.
